Results: publication PMC12586667 (Scientific Reports, 2025)

Key:
CYP2D6 = CYP2D6 (Homo sapiens, UniProt P10635); experiment: CYP2D6 activity on chip by quantifying 1-OH bufuralol; type: in vitro ADME
CYP2C9 = CYP2C9 (Homo sapiens, UniProt P11712); experiment: CYP2C9 activity on chip by quantifying 4-OH diclofenac; type: in vitro ADME
[1] = Stability of metabolite in medium containing 10% FBS; type: in vitro ADME; settings: could not be measured
[2] = system: WT and genome-edited intestine-liver-on-a-chip (Caco-2 and HepG2 cells); experiment: Drug permeability assay; type: in vitro ADME, human; settings: for drug concentration in the top channel / drug concentration in the bottom channel: WT and genome-edited chips
[3] = model drugs with minimal first-pass effects; cited from earlier work
CYP1A2 = biological target: T1, CYP1A2 (Homo sapiens, UniProt P05177); experiment: CYP1A2 activity on chip by quantifying ISOPRO; type: in vitro ADME
T1 sequence (P05177 1-516): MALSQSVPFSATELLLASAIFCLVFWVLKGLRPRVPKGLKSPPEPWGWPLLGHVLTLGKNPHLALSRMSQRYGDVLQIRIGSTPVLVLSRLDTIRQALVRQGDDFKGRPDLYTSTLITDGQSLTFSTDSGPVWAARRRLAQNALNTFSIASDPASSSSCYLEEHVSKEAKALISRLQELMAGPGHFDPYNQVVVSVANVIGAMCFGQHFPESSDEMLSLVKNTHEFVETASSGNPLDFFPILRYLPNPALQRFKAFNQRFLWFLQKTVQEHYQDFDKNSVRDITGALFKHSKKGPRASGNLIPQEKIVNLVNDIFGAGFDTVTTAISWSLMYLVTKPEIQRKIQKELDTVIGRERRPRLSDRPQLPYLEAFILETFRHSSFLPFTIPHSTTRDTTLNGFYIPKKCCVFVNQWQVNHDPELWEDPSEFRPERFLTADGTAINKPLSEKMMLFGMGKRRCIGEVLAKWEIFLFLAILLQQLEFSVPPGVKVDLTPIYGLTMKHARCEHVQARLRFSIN

[4] = Measurement of drug absorption; type: physicochemical; settings: within 2 h
[5] = coadministration; cited from earlier work
CYP3A4 = CYP3A4 (Homo sapiens, UniProt P08684); experiment: CYP3A4 activity on chip by quantifying α-OH triazolam; type: in vitro ADME; settings: flow conditions
Sequence of CYP3A4 (P08684 whole entry): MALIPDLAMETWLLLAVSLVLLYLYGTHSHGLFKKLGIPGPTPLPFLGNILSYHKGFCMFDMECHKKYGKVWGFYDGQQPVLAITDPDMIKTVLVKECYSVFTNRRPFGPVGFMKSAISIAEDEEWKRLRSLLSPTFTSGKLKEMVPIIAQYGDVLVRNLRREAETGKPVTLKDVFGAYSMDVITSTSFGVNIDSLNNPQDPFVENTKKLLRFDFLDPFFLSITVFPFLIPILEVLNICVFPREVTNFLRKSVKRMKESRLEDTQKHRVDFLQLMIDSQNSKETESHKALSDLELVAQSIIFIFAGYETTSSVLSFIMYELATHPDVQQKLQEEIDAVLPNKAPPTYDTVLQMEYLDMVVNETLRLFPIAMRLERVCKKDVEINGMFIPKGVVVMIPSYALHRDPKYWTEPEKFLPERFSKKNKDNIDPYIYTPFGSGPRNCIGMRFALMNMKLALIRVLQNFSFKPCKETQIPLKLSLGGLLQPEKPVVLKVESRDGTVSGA

[6] = system: intestine-liver-on-a-chip (Caco-2 and HepG2 cells); experiment: Lucifer yellow permeability assay; type: in vitro ADME, human; settings: WT and genome-edited chips vs WT or genome-edited Caco-2 mono-culture
[7] = both static and flow conditions

Sequence of CYP2C9 (P11712 whole entry): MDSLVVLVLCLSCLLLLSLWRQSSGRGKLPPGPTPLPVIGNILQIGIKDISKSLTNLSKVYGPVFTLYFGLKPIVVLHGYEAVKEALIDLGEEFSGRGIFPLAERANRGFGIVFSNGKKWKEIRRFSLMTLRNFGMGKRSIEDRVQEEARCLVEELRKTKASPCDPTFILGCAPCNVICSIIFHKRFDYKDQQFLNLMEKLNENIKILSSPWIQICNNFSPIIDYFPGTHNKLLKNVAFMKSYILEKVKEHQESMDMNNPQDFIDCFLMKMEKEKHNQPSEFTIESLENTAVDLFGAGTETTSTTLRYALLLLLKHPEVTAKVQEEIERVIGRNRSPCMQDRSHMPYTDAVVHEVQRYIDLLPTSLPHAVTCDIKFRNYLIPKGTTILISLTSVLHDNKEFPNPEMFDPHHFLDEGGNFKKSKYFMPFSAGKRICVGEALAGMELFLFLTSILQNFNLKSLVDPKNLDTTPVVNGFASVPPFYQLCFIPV
Sequence of CYP2D6 (P10635 whole entry): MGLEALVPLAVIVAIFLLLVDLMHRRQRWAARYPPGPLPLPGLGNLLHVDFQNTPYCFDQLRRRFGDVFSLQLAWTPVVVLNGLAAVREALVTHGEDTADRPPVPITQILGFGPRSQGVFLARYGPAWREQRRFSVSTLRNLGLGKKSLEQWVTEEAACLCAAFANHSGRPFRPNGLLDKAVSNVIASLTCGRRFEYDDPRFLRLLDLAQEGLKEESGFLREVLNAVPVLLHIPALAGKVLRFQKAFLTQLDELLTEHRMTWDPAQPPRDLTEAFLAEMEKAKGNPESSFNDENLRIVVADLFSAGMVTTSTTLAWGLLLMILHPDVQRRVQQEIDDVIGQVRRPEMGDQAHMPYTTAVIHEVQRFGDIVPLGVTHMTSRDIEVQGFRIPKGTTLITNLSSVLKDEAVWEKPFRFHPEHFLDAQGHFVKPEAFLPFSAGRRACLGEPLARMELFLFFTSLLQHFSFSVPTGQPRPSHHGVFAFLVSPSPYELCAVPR

1’-hydroxy bufuralol [1-OH bufuralol]
metabolite concentration, genome-edited chip vs WT chip (CYP2D6; flow, top and bottom channels, 24 and 48 h): higher in the genome-edited chip compared to the WT chip | metabolite concentration, flow vs static conditions (CYP2D6; genome-edited chip): higher than that observed in the static conditions

O=C(O)Cc1ccccc1Nc1c(Cl)cc(O)cc1Cl [4-OH diclofenac, 4’-hydroxy diclofenac]
metabolite concentration, genome-edited chip vs WT chip (CYP2C9; flow, top and bottom channel, 24 and 48 h): higher in the genome-edited chip Flow compared to the WT chip Flow | metabolite concentration, static vs flow conditions (CYP2C9; top channel of genome-edited chip): higher than that under flow conditions

CC(C)NCC(O)COc1ccc(O)c2ccccc12 (centres unmarked) [4-OH propranolol, 4-hydroxy propranolol]
stability [1]: extremely unstable

CC(=O)Nc1ccc(O)cc1 [APAP, acetaminophen]
drug concentration in the top channel, genome-edited chip vs WT chip ([2]; flow conditions, 24 and 48 h): slightly higher than those in the WT chip | drug concentration in the top channel ([2]; flow conditions, 24 and 48 h, 10 μM): decreased compared to the initial concentration of 10 μM | drug concentration in the bottom channel ([2]; flow conditions): increased substantially | drug concentration in the bottom channel ([2]; static conditions, 10 μM): increased in a time-dependent manner | drug concentration in the top channel ([2]; static conditions, 10 μM): remained constant | oral bioavailability (F) [3]: > 0.7

NCC(O)COc1cccc2ccccc12 (centres unmarked) [ISOPRO, desisopropylpropranolol]
metabolite concentration in the bottom channel (CYP1A2; flow conditions vs static): increased under flow conditions | metabolite concentration in the top channel (CYP1A2; flow conditions vs static): no change was observed | metabolite concentration, genome-edited chip vs WT chip (CYP1A2; flow, top and bottom channels, 1 μM propranolol): higher in the genome-edited chip under flow conditions compared to the WT chip | time of peak concentration in the bottom channel (CYP1A2; genome-edited chip, flow conditions): 24 h

CCc1cccc2cc(C(O)CNC(C)(C)C)oc12 (centres unmarked) [bufuralol]
drug concentration, genome-edited chips vs WT chips ([2]; after 48 h): slightly lower in the genome-edited chips than in the WT chips | drug concentration in the top channel [2, 7]: rapid decrease in concentration | drug concentration in the bottom channel ([2]; flow conditions): increased substantially compared to static conditions | adsorption onto the PDMS device [4]: substantially adsorbed

Cn1c(=O)c2c(ncn2C)n(C)c1=O [caffeine]
oral bioavailability (F) [3]: > 0.7

O=C(O)Cc1ccccc1Nc1c(Cl)cccc1Cl [diclofenac]
drug concentration in the top channel [2, 7]: slightly reduced compared to the initial concentration of 10 μM

CCC(C)n1ncn(-c2ccc(N3CCN(c4ccc(OCC5COC(Cn6cncn6)(c6ccc(Cl)cc6Cl)O5)cc4)CC3)cc2)c1=O (centres unmarked) [itraconazole]
effect on the area under the curve (AUC) of triazolam [5]: increase the area under the curve (AUC) of triazolam

CC(C)NCC(O)COc1cccc2ccccc12 (centres unmarked) [propranolol]
drug concentration in the top channel [2, 7]: rapidly decreased | drug concentration, genome-edited chips vs WT chips ([2]; flow conditions, 24 and 48 h): significantly lower than those in the WT chips | drug concentration in the bottom channel ([2]; flow conditions): increased substantially | adsorption onto the PDMS device [4]: substantially adsorbed

Cc1nnc2n1-c1ccc(Cl)cc1C(c1ccccc1Cl)=NC2 [triazolam]
drug concentration in the top channel [2, 7]: rapid decrease in concentration | drug concentration, genome-edited chips vs WT chips ([2]; flow conditions, 24 and 48 h): lower than those in WT chips | drug concentration in the bottom channel ([2]; flow conditions): increased substantially | adsorption onto the PDMS device [4]: substantially adsorbed

OCc1nnc2n1-c1ccc(Cl)cc1C(c1ccccc1Cl)=NC2 [α-OH triazolam, α-hydroxy triazolam]
metabolite concentration, genome-edited chip vs WT chip (CYP3A4): higher than that observed in the WT chip

Lucifer Yellow CH [LY]
Papp of LY in chips compared to Caco-2 cells mono-culture [6]: lower in both the WT and genome-edited chips
